From the supplement of paper PMC11451515

Test system: SEM cells
Assay: cell viability relative to DMSO control; higher = less cytotoxic
Conditions: 48 h
Method in brief: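 Leukemia cells (NOMO1 or SEM, 500 cells/well; P12-Ichikawa, 1000 cells/well) were seeded in 5 μl in 1536-well plates after at least four passages of adaptation to each medium. They received library compounds in DMSO by pin dosing, 11 threefold points from 47 μM to 0.79 nM. Luminescence with CellTiter-Glo One was read after 48 h at 37°C. Viability is stated per plate relative to DMSO wells, with cell-free wells as background.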

[1] = HPLM + 10% dialyzed FBS, 0.000781 µM
[2] = HPLM + 10% dialyzed FBS, 0.00234 µM
[3] = HPLM + 10% dialyzed FBS, 0.00702 µM
[4] = HPLM + 10% dialyzed FBS, 0.0211 µM
[5] = HPLM + 10% dialyzed FBS, 0.0632 µM
[6] = HPLM + 10% dialyzed FBS, 0.19 µM
[7] = HPLM + 10% dialyzed FBS, 0.569 µM
[8] = HPLM + 10% dialyzed FBS, 1.71 µM
[9] = HPLM + 10% dialyzed FBS, 5.12 µM
[10] = HPLM + 10% dialyzed FBS, 15.4 µM
[11] = HPLM + 10% dialyzed FBS, 46.1 µM
[12] = RPMI 5 mM glucose + 10% FBS, 0.000781 µM
[13] = RPMI 5 mM glucose + 10% FBS, 0.00234 µM
[14] = RPMI 5 mM glucose + 10% FBS, 0.00702 µM
[15] = RPMI 5 mM glucose + 10% FBS, 0.0211 µM
[16] = RPMI 5 mM glucose + 10% FBS, 0.0632 µM
[17] = RPMI 5 mM glucose + 10% FBS, 0.19 µM
[18] = RPMI 5 mM glucose + 10% FBS, 0.569 µM
[19] = RPMI 5 mM glucose + 10% FBS, 1.71 µM
[20] = RPMI 5 mM glucose + 10% FBS, 5.12 µM
[21] = RPMI 5 mM glucose + 10% FBS, 15.4 µM
[22] = RPMI 5 mM glucose + 10% FBS, 46.1 µM
[23] = RPMI 5 mM glucose + 10% dialyzed FBS, 0.000781 µM
[24] = RPMI 5 mM glucose + 10% dialyzed FBS, 0.00234 µM
[25] = RPMI 5 mM glucose + 10% dialyzed FBS, 0.00702 µM
[26] = RPMI 5 mM glucose + 10% dialyzed FBS, 0.0211 µM
[27] = RPMI 5 mM glucose + 10% dialyzed FBS, 0.0632 µM
[28] = RPMI 5 mM glucose + 10% dialyzed FBS, 0.19 µM
[29] = RPMI 5 mM glucose + 10% dialyzed FBS, 0.569 µM
[30] = RPMI 5 mM glucose + 10% dialyzed FBS, 1.71 µM
[31] = RPMI 5 mM glucose + 10% dialyzed FBS, 5.12 µM
[32] = RPMI 5 mM glucose + 10% dialyzed FBS, 15.4 µM
[33] = RPMI 5 mM glucose + 10% dialyzed FBS, 46.1 µM

| Structure (SMILES) | cell viability [1] [%] | cell viability [2] [%] | cell viability [3] [%] | cell viability [4] [%] | cell viability [5] [%] | cell viability [6] [%] | cell viability [7] [%] | cell viability [8] [%] | cell viability [9] [%] | cell viability [10] [%] | cell viability [11] [%] | cell viability [12] [%] | cell viability [13] [%] | cell viability [14] [%] | cell viability [15] [%] | cell viability [16] [%] | cell viability [17] [%] | cell viability [18] [%] | cell viability [19] [%] | cell viability [20] [%] | cell viability [21] [%] | cell viability [22] [%] | cell viability [23] [%] | cell viability [24] [%] | cell viability [25] [%] | cell viability [26] [%] | cell viability [27] [%] | cell viability [28] [%] | cell viability [29] [%] | cell viability [30] [%] | cell viability [31] [%] | cell viability [32] [%] | cell viability [33] [%] |
| --- | --- | --- | --- | --- | --- | --- | --- | --- | --- | --- | --- | --- | --- | --- | --- | --- | --- | --- | --- | --- | --- | --- | --- | --- | --- | --- | --- | --- | --- | --- | --- | --- | --- |
| CC(C)(O)C(=O)Nc1ccc([N+](=O)[O-])c(C(F)(F)F)c1 | 98.6 | 107 | 115 | 108 | 116 | 113 | 124 | 123 | 117 | 123 | 103 | 92.2 | 97 | 91.9 | 91.3 | 101 | 97.6 | 103 | 114 | 104 | 123 | 82.8 | 112 | 114 | 112 | 120 | 112 | 118 | 135 | 123 | 131 | 128 | 126 |
| O=[S+]([O-])(NCCNC/C=C/c1ccc(Br)cc1)c1cccc2cnccc12 | 97.5 | 94.8 | 97.5 | 42.4 | 101 | 89.5 | 91.1 | 82.3 | 68.7 | 43.1 | 48.2 | 115 | 119 | 115 | 48.9 | 114 | 131 | 105 | 103 | 62.5 | 58.4 | 43.7 | 95.5 | 96.6 | 93.8 | 45.3 | 91.6 | 87.7 | 83.8 | 74.5 | 56.4 | 41.6 | 34.9 |
| NCCc1ccc(O)c(O)c1 | 119 | 137 | 121 | 133 | 130 | 132 | 131 | 110 | 109 | 86 | 8.51 | 113 | 136 | 123 | 123 | 127 | 139 | 122 | 96.5 | 128 | 107 | 18.6 | 99 | 124 | 107 | 111 | 123 | 111 | 109 | 105 | 107 | 95.2 | 11.5 |
| O=C(O)Cc1cccc(OCCCN(Cc2cccc(C(F)(F)F)c2Cl)CC(c2ccccc2)c2ccccc2)c1 | 109 | 118 | 109 | 97.8 | 113 | 102 | 110 | 100 | 93.5 | 103 | 94.5 | 98.3 | 93.6 | 95.1 | 101 | 86.3 | 84.5 | 92 | 89.5 | 87.3 | 84.8 | 96.4 | 111 | 111 | 109 | 135 | 119 | 113 | 126 | 103 | 96.1 | 99.2 | 111 |
| COc1ccc(-c2oc3cc(OC)ccc3c2C(=O)c2ccc(C#N)cc2)cc1 | 114 | 117 | 120 | 121 | 128 | 136 | 129 | 141 | 131 | 142 | 125 | 93.2 | 109 | 133 | 127 | 130 | 140 | 139 | 148 | 136 | 123 | 124 | 113 | 123 | 144 | 124 | 150 | 175 | 162 | 174 | 147 | 136 | 136 |
| Cc1ccc(-c2cc(C(F)(F)F)nn2-c2ccc([S+](N)(=O)[O-])cc2)cc1 | 112 | 113 | 106 | 125 | 119 | 126 | 121 | 122 | 106 | 109 | 91.3 | 84.8 | 109 | 110 | 110 | 126 | 122 | 122 | 102 | 102 | 105 | 83.9 | 120 | 121 | 126 | 127 | 120 | 123 | 120 | 111 | 117 | 140 | 87.4 |
| O=C(NCc1ccccc1)c1csc(Nc2ccncn2)n1 | 84 | 77.5 | 97 | 106 | 108 | 75.7 | 74.4 | 50.4 | 17.2 | 4.02 | 1.49 | 97.4 | 82.9 | 99.5 | 96.3 | 108 | 55.3 | 67.8 | 29.2 | 9.72 | 2.63 | 1.31 | 89.6 | 69.1 | 94.8 | 103 | 108 | 81.5 | 85.9 | 43.7 | 17.4 | 2.76 | 1.35 |
| N#CC[C@H](C1CCCC1)n1cc(-c2ncnc3[nH]ccc23)cn1 | 100 | 104 | 103 | 103 | 94.1 | 85.9 | 103 | 90.1 | 63.7 | 39.6 | 24.5 | 103 | 111 | 86.6 | 108 | 109 | 96.1 | 92.7 | 107 | 50 | 23 | 19.8 | 98.9 | 97.7 | 98.1 | 97.9 | 113 | 99.6 | 96.8 | 87.3 | 63.3 | 31.6 | 26.3 |
